Data taken from US8574563B2 (Bristol-Myers Squibb Company, priority 2006, dated 2013).
Where two headings read alike, the source gives them in different places.

Tested on: HCV 1b-377-neo replicon cells
Experiment: HCV replicon assay, HCV 1b-377-neo replicon cells (1b FRET)
Format: cell-based, Hepatitis C virus genotype 1b
Settings: HCV 1b-377-neo replicon cells, HCV 1b genotype, read-out: EC50 range against HCV 1b (Table 2, Range)
Method in brief: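 FRET-based replicon assay in HCV 1b-377-neo cells, including a comparison line carrying the NS5A Y2065H mutation that confers resistance to a reference compound.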

| SMILES | EC50 (Hepatitis C virus) [nM] | EC50 [nM] |
| --- | --- | --- |
| CN(C)[C@@H](C(=O)N1CCC[C@H]1c1ncc(-c2ccc(-c3ccc(-c4cnc([C@@H]5CCCN5C(=O)[C@H]5CCCO5)[nH]4)cc3)cc2)[nH]1)c1ccccc1Cl [Example 107-38, (1R)-1-(2-chloro-phenyl)-N,N-dimethyl-2-oxo-2-((2S)-2-(5-(4′-(2-((2S)-1-((2R)-tetrahydro-2-furanylcarbonyl)-2-pyrrolidinyl)-1H-imidazol-5-yl)-4-biphenylyl)-1H-imidazol-2-yl)-1-pyrrolidinyl) ethanamine] | 0.001 to 0.999 | – |
| COC(=O)N[C@@H]1CC[C@H](C(=O)N2CCC[C@H]2c2ncc(-c3ccc(-c4ccc(-c5cnc([C@@H]6CCCN6C(=O)[C@H](NC(=O)OC)c6ccccc6)[nH]5)cc4)cc3)[nH]2)C1 [cj-64, methyl ((1R)-2-((2S)-2-(5-(4′-(2-((2S)-1-(((1S,3R)-3-((methoxycarbonyl)amino)cyclopentyl)carbonyl)-2-pyrrolidinyl)-1H-imidazol-5-yl)-4-biphenylyl)-1H-imidazol-2-yl)-1-pyrrolidinyl)-2-oxo-1-phenylethyl)carbamate] | 0.001 to 0.999 | – |
| COC(=O)N[C@H](C(=O)N1CCC[C@H]1c1ncc(-c2ccc(-c3ccc(-c4[nH]c([C@@H]5CCCN5C(=O)[C@@H](NC(=O)OC)C(C)C)nc4CC4OCCCO4)cc3)cc2)[nH]1)C(C)C [Example J14, methyl ((1S)-1-(((2S)-2-(4-(1,3-dioxan-2-ylmethyl)-5-(4′-(2-((2S)-1-((2S)-2-((methoxycarbonyl)amino)-3-methylbutanoyl)-2-pyrrolidinyl)-1H-imidazol-4-yl)-4-biphenylyl)-1H-imidazol-2-yl)-1-pyrrolidinyl)carbonyl)-2-methylpropyl)carbamate] | 0.001 to 0.999 | – |
| CCN(CC)[C@@H](C(=O)N1CCC[C@H]1c1ncc(-c2ccc(-c3ccc(-c4cnc([C@@H]5CCCN5C(=O)[C@H](Cc5c[nH]nn5)NC(=O)OC)[nH]4)cc3)cc2)[nH]1)c1ccccc1 [cj-32, methyl ((1S)-2-((2S)-2-(5-(4′-(2-((2S)-1-((2R)-2-(diethylamino)-2-phenylacetyl)-2-pyrrolidinyl)-1H-imidazol-5-yl)-4-biphenylyl)-1H-imidazol-2-yl)-1-pyrrolidinyl)-2-oxo-1-(1H-1,2,3-triazol-4-ylmethyl)ethyl)carbamate] | 0.001 to 0.999 | – |
| COC(=O)N[C@@H](C(=O)N1CCC[C@H]1c1ncc(-c2ccc(-c3ccc(-c4cnc([C@@H]5CCCN5C(=O)[C@@H]5C[C@@H]6C[C@@H]6N5)[nH]4)cc3)cc2)[nH]1)c1ccccc1 [Example 83, methyl ((1R)-2-((2)S-2-(5-(4′ (2-((2S)-1-((1S,3S,5S)-2-azabicyclo[3.1.0]hex-3-ylcarbonyl)-2-pyrrolidinyl)-1H-imidazol-5-yl)-4-biphenylyl)-1H-imidazol-2-yl)-1-pyrrolidinyl)-2-oxo-1-phenylethyl)carbamate] | – | 0.001 to 0.999 |
| Cn1cncc1C(=O)N[C@@H](C(=O)N1CCC[C@H]1c1ncc(-c2ccc(-c3ccc(-c4cnc([C@@H]5CCCN5C(=O)[C@H](NC(=O)c5cncn5C)c5ccccc5)[nH]4)cc3)cc2)[nH]1)c1ccccc1 [Example 25-2, N,N′-(4,4′-biphenyldiylbis(1H-imidazole-5,2-diyl(2S)-2,1-pyrrolidinediyl((1R)-2-oxo-1-phenyl-2,1-ethanediyl)))bis(1-methyl-1H-imidazole-5-carboxamide)] | 0.001 to 0.999 | – |
| COC(=O)N[C@@H](C(=O)N1CCC[C@H]1c1ncc(-c2ccc(-c3ccc(-c4cnc([C@@H]5CCCN5C(=O)CN5CCN(C)CC5)[nH]4)cc3)cc2)[nH]1)c1ccccc1 [Example 57, methyl ((1R)-2-((2S)-2-(5-(4′-(2-((2S)-1-((4-methyl-1-piperazinyl)acetyl)-2-pyrrolidinyl)-1H-imidazol-5-yl)-4-biphenylyl)-1H-imidazol-2-yl)-1-pyrrolidinyl)-2-oxo-1-phenylethyl)carbamate] | 0.001 to 0.999 | – |
| O=C(Cc1cccnc1)N[C@@H](C(=O)N1CCC[C@H]1c1ncc(-c2ccc(-c3ccc(-c4cnc([C@@H]5CCCN5C(=O)[C@H](NC(=O)Cc5cccnc5)c5ccccc5)[nH]4)cc3)cc2)[nH]1)c1ccccc1 [Example 25-4, N,N′-(4,4′-biphenyldiylbis(1H-imidazole-5,2-diyl(2S)-2,1-pyrrolidinediyl((1R)-2-oxo-1-phenyl-2,1-ethanediyl)))bis(2-(3-pyridinyl)acetamide)] | 0.001 to 0.999 | – |
| CN(C)[C@@H](C(=O)N1CCC[C@H]1c1ncc(-c2ccc(-c3ccc(-c4cnc([C@@H]5CCCN5C(=O)[C@@H](c5ccccc5)N(C)C)[nH]4)nn3)nn2)[nH]1)c1ccccc1 [Example 153c-1, (1R,1′R)-2,2′-(3,3′-bipyridazine-6,6′-diylbis(1H-imidazole-5,2-diyl(2S)-2,1-pyrrolidinediyl))bis(N,N-dimethyl-2-oxo-1-phenylethanamine)] | 1 to 99 | – |
| COC(=O)N[C@@H](C(=O)N1CCC[C@H]1c1ncc(-c2ccc(-c3ccc(-c4cnc([C@@H]5CCCN5C(=O)c5ccccn5)[nH]4)cc3)cc2)[nH]1)c1ccccc1 [Example 67, methyl ((1R)-2-oxo-1-phenyl-2-((2S)-2-(5-(4′-(2-((2S)-1-(2-pyridinylcarbonyl)-2-pyrrolidinyl)-1H-imidazol-5-yl)-4-biphenylyl)-1H-imidazol-2-yl)-1-pyrrolidinyl)ethyl)carabamate] | – | 0.001 to 0.999 |
| CCN(CC)[C@@H](C(=O)N1CCC[C@H]1c1ncc(-c2ccc(-c3ccc(-c4cnc([C@@H]5CCCN5C(=O)[C@H]5CCCC[C@H]5NC(=O)OC)[nH]4)cc3)cc2)[nH]1)c1ccccc1 [cj-94, methyl ((1R,2S)-2-(((2S)-2-(5-(4′-(2-((2S)-1-((2R)-2-(diethylamino)-2-phenylacetyl)-2-pyrrolidinyl)-1H-imidazol-5-yl)-4-biphenylyl)-1H-imidazol-2-yl)-1-pyrrolidinyl)carbonyl)cyclohexyl)carbamate] | 0.001 to 0.999 | – |
| COC(=O)N[C@@H](C(=O)N1CCC[C@H]1c1ncc(-c2ccc(-c3ccc(-c4cnc([C@@H]5CCCN5C(=O)Cc5ccccc5CN5CCCC5)[nH]4)cc3)cc2)[nH]1)c1ccccc1 [Example 84-86, methyl ((1R)-2-oxo-1-phenyl-2-((2S)-2-(5-(4′-(2-((2S)-1-((2-(1-pyrrolidinylmethyl)phenyl)acetyl)-2-pyrrolidinyl)-1H-imidazol-5-yl)-4-biphenylyl)-1H-imidazol-2-yl)-1-pyrrolidinyl)ethyl)carbamate] | – | 0.001 to 0.999 |
| CCN(CC)[C@@H](C(=O)N1CCC[C@H]1c1ncc(-c2ccc(-c3ccc(-c4cnc([C@@H]5CCCN5C(=O)C[C@@H](Cc5ccsc5)NC(=O)OC)[nH]4)cc3)cc2)[nH]1)c1ccccc1 [cj-55, methyl ((1R)-3-((2S)-2-(5-(4′-(2-((2S)-1-((2R)-2-(diethylamino)-2-phenylacetyl)-2-pyrrolidinyl)-1H-imidazol-5-yl)-4-biphenylyl)-1H-imidazol-2-yl)-1-pyrrolidinyl)-3-oxo-1-(3-thienylmethyl)propyl)carbamate] | 0.001 to 0.999 | – |
| COC(=O)N[C@@H](C)C(=O)N1CCC[C@H]1c1ncc(-c2ccc(-c3ccc(-c4cnc([C@@H]5CCCN5[C@@](C)(C=O)NC(=O)OC)[nH]4)cc3)cc2)[nH]1 [Example M17, methyl ((1S)-1-((2S)-2-(5-(4′-(2-((2S)-1-(N-(methoxycarbonyl)-L-alanyl)-2-pyrrolidinyl)-1H-imidazol-5-yl)-4-biphenylyl)-1H-imidazol-2-yl)-1-pyrrolidinyl)-1-methyl-2-oxoethyl)carbamate] | 100 to 999 | – |
